The values below come from publication PMC4459817, “Vasculotide reduces endothelial permeability and tumor cell extravasation in the absence of binding to or agonistic activation of Tie2” (EMBO Molecular Medicine, 2015).

One test deals with T1, mouse Tie2-Fc (mTie2-Fc) (Mus musculus, UniProt Q02858).
T1 construct: Purified human or mouse Tie2-Fc (i.e., Fc-conjugated extracellular domains of Tie2); purchased R&D Systems 762-T2-100
The experiment in a line: SPR binding to mouse Tie2-Fc. Particulars: mouse Tie2-Fc (low- and high-density), 37°C, pH 7.4, Supplementary Fig S3. An excerpt:
To better understand the difficulties we had in observing Tie2 activation by VT, we sought to characterize the binding affinity and kinetics of VT to Tie2. Purified human or mouse Tie2-Fc (i.e., Fc-conjugated extracellular domains of Tie2) were first coupled to protein A sepharose beads for pull-down experiments (Fig9A and B) or immobilized on a Biacore CM5 sensor chip for surface plasmon resonance (SPR) experiments (Fig9C and Supplementary Fig S3). […]
9. Tie2 Receptor-Binding Assays
Vasculotide (VT) was manufactured by Bachem UK Ltd. T7c (CHHHRHSF) was synthesized by Genscript (Piscataway, NJ, USA). PEG-Cys consists of a single cysteine reacted to each of the 4 arms of PEG-maleimide (Sunbright PTE-100MA, NOF Corporation, Tokyo, Japan). BowAng1 (Ang1-Fd-Fc-Fd) was made and provided by Regeneron Pharmaceuticals, Inc. (Tarrytown, NY, USA). COMP-Ang1 was purified in the Kerbel lab from serum-free culture media conditioned by an engineered CHO cell line provided by Dr. Gou Young Koh (KAIST), according to published protocols (Hwang et al, 2008).
Recombinant human Angiopoietin-1 (rhAng1) and Vascular Endothelial Growth Factor ( rhVEGF) were […]
purchased from R&D Systems. […]
(structural/molecular weight control for VT), and 40 μL of supernatant (7% of residual/unbound ligand) – were similarly boiled in SDS sample buffer. […]
Binding analysis were performed by exposure of immobilized mTie2-Fc to the analytes diluted in HBS-EP (0.01M HEPES pH 7.4, 0.15M NaCl, 3mM EDTA, 0.005% v/v Tween-20), which was supplemented with 1mg/mL carboxymethyl dextran (NSB reducer, GE Healthcare) to reduce non-specific binding to the sensor chip. […] To quantitatively determine the kinetic properties of the interaction (KD, kd, ka) and avoid mass transport limitations, mTie2-Fc and hTie2-Fc were immobilized at low density (1,000-1,200RU) onto separate flow cells of the CM5 chip using amine coupling chemistry. […] All data were analysed using BIA Evaluation Software 2.0 (GE Healthcare) to calculate kd, ka and KD using the 1:1 ligand binding model. […]
(In general: In SPR one partner is held on a chip, and binding of the other changes the refractive index at the surface.)

For test [1], the system named is human microvascular ECs of dermal blood vessel origin (HMVEC-DBl). The experiment in a line: modified Boyden chamber, thrombin-stimulated FITC-dextran permeability, HMVEC-DBl. The format is cell-based. Particulars: HMVEC-DBl; structural control alone; Fig1D. The protocol: ECs were first treated with Vasculotide (VT), PBS (vehicle/negative control), Ang1 (positive control), PEG-Cys (polyethylene glycol backbone), T7c (non-PEGylated CHHHRHSF peptides), or VT in the presence of 100-fold molar excess of T7c. The concentrations used, 10–20 ng/mL VT and 200–400 ng/mL Ang1, are estimated molar equivalents (0.71–1.43 nM). Thirty minutes later, ECs were stimulated with thrombin, 0.1% BSA (vehicle/negative control), or EDTA (positive control). Another 30mins later, the amount of FITC-dextran diffusion into the lower chambers (A, D) provides a measure of endothelial permeability. CMTPX-labeled tumor cells (TCs) were then dispensed into inserts, and the amount of TC fluorescence emitting from the underside of insert membranes after 20 h (B–C) or 28 h (E) reflects the efficiency of trans-endothelial TC migration. Representative fluorescent images (10×) of membrane undersides are shown in (C), where DAPI-stained nuclei of ECs/TCs are shown in blue, ‘extravasated’ CMTPX-labeled TCs are shown in red, and the # of CMTPX^+ pixels are shown numerically in red. Means ± SEM are shown (A,B,D,E). Three experiments (twice with HMVEC-LBl and once with HMVEC-DBl) were run with n = 3–5 inserts (independent biological replicates) per group and analyzed by two-sampled unpaired t-tests. […]
Endothelial cells (ECs) were grown on cell culture inserts with uncoated 8-μm-pore PET filter membranes to 100% confluency. […] After 30 min of thrombin stimulation or 4–6 h of TC-CM stimulation, FITC fluorescence (ex/em = 490/520 nm) was measured from a 50 μl sample of the lower chamber media. […] CMPTX fluorescence from migrated TCs was then quantified from 10× microscopy images using a MATLAB (MathWorks, Natick, MA, USA) script; five images (technical replicates) were analyzed per insert. […]

“Also recorded” adds a separate entry of the source.

T1 sequence (Q02858 23-746 limits assumed): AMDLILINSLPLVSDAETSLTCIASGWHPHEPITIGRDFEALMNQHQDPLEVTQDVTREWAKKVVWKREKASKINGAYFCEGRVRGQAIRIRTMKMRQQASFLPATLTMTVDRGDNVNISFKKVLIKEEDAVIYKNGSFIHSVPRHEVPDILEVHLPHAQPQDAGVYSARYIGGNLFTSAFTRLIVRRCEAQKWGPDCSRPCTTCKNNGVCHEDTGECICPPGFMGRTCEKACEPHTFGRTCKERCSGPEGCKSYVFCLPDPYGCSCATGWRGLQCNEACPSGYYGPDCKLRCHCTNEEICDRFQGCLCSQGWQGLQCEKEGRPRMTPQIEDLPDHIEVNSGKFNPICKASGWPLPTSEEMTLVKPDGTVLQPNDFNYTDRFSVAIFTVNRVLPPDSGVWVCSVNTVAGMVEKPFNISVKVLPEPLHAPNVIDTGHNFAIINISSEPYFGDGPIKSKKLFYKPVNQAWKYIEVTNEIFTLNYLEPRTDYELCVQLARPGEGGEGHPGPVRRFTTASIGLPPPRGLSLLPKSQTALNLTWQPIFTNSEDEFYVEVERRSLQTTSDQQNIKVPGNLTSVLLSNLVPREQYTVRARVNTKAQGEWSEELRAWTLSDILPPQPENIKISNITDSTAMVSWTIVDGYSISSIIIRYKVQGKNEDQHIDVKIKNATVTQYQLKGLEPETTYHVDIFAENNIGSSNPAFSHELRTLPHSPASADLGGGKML

As for “CHHHRHSF [T7c, non-PEGylated CHHHRHSF peptides, reference compound]”, at mouse Tie2-Fc (mTie2-Fc), the “binding to Tie2-Fc” value is recorded as “no binding to Tie2-Fc was detectable; also recorded: undetectable binding”. Also, in test [1], the “trans-endothelial permeability, structural components of VT” value is reported as “partial effects”.
